Test results published in patent publication US11071731B2, “Allosteric modulators of the mu opioid receptor” (Chiromics, LLC, priority 2017, dated 2021).

How the values were obtained:
mu opioid receptor (MOR) [1] = molecular target: T1, mu opioid receptor (MOR) (Homo sapiens, UniProt P35372); assay: PathHunter β-arrestin recruitment assay, PAM mode with EC20 endomorphin-1; assay type: cell-based; settings: for β-arr Max. Resp.: maximal response for β-arrestin recruitment; for EC50: β-arrestin recruitment, read-out: β-arr. EC50
In short: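 β-Arrestin recruitment to the receptor was tracked by chemiluminescent β-galactosidase activity from complementing fragments (ED on receptor, EA on β-arrestin). Per-compound outputs were EC50 and percent maximal response.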

mu opioid receptor (MOR) [2] = molecular target: T1, mu opioid receptor (MOR); assay: Hit Hunter cAMP signaling assay (adenylyl cyclase inhibition), PAM mode with EC20 endomorphin-1; assay type: cell-based; settings: for EC50: cAMP EC50, adenylyl cyclase inhibition; for cAMP Max. Resp.: maximal response for adenylyl cyclase inhibition

T1 sequence (P35372 whole entry, the tested form may be a part): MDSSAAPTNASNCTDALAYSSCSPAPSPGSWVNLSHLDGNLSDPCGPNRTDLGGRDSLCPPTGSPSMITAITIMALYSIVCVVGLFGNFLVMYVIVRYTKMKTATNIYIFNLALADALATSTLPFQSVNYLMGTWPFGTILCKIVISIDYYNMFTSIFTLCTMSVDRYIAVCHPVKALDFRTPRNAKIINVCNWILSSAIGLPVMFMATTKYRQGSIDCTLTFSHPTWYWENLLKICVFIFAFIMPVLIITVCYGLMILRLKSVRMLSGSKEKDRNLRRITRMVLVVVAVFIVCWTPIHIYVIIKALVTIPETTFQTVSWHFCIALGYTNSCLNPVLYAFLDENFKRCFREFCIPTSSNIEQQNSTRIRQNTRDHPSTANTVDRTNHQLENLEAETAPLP

Structure (SMILES) | β-arr Max. Resp. (mu opioid receptor (MOR) [1]) | EC50 (mu opioid receptor (MOR) [1]) [nM] | EC50 (mu opioid receptor (MOR) [2]) [nM] | cAMP Max. Resp. (mu opioid receptor (MOR) [2])
CNc1cccc(C2CCCCN2Cc2cc(Cl)ccc2F)n1 (stereo not shown) [compound 168] | F (F represents a maximal response of > 60%) | > 2100 | > 2100 | F (F represents a maximal response of > 60%)
Fc1ccc(Cl)cc1CN1CCCCC1c1cccc(OC(F)(F)F)n1 (stereo not shown) [compound 169] | F (F represents a maximal response of > 60%) | < 700 | < 700 | F (F represents a maximal response of > 60%)
FC(F)(F)c1cccc(C2CCCCN2Cc2cccc(Cl)c2)n1 (stereo not shown) [compound 170] | F (F represents a maximal response of > 60%) | 700 to 2100 | < 700 | E (E represents a maximal response of 40-60%)
Fc1cccc(C2CCCCN2Cc2cc(Cl)ccc2F)n1 (stereo not shown) [compound 171] | F (F represents a maximal response of > 60%) | 700 to 2100 | 700 to 2100 | E (E represents a maximal response of 40-60%)
Fc1c(Cl)cccc1CN1CCCCC1c1cccc(C(F)(F)F)n1 (stereo not shown) [compound 172] | F (F represents a maximal response of > 60%) | 700 to 2100 | < 700 | E (E represents a maximal response of 40-60%)
FC(F)(F)c1cccc(C2CCCCN2Cc2cccc(Br)c2)n1 (stereo not shown) [compound 173] | F (F represents a maximal response of > 60%) | < 700 | < 700 | F (F represents a maximal response of > 60%)
Fc1ccc(C2CCCCN2Cc2ccnc(Cl)c2)cc1Cl (stereo not shown) [compound 174] | F (F represents a maximal response of > 60%) | 700 to 2100 | 700 to 2100 | E (E represents a maximal response of 40-60%)
FC(F)(F)c1cccc(CN2CCCCC2c2cccc(C(F)(F)F)n2)c1 (stereo not shown) [compound 175] | F (F represents a maximal response of > 60%) | > 2100 | > 2100 | E (E represents a maximal response of 40-60%)
FC(F)(F)c1cccc(C2CCCCN2Cc2cc(Cl)ccc2Cl)n1 (stereo not shown) [compound 176] | F (F represents a maximal response of > 60%) | 700 to 2100 | 700 to 2100 | F (F represents a maximal response of > 60%)
Fc1cc(C2CC(F)CCN2c2nc(Cl)ncc2F)cc(C(F)(F)F)c1 (stereo not shown) [compound 196] | F (F represents a maximal response of > 60%) | < 700 | < 700 | F (F represents a maximal response of > 60%)
Fc1cnc(Cl)nc1N1CCC(F)CC1c1cccc(C(F)(F)F)c1 (stereo not shown) [compound 197] | F (F represents a maximal response of > 60%) | 700 to 2100 | 700 to 2100 | F (F represents a maximal response of > 60%)
Fc1cc(C2CC(F)(F)CCN2c2nc(Cl)ncc2F)cc(C(F)(F)F)c1 (stereo not shown) [compound 198] | F (F represents a maximal response of > 60%) | 700 to 2100 | 700 to 2100 | F (F represents a maximal response of > 60%)
Fc1cnc(Cl)nc1N1CCC(F)(F)CC1c1cccc(C(F)(F)F)c1 (stereo not shown) [compound 199] | F (F represents a maximal response of > 60%) | < 700 | 700 to 2100 | E (E represents a maximal response of 40-60%)
C=C1CCN(c2nc(Cl)ncc2F)C(c2cc(F)cc(C(F)(F)F)c2)C1 (stereo not shown) [compound 200] | F (F represents a maximal response of > 60%) | < 700 | < 700 | E (E represents a maximal response of 40-60%)
OC1CCN(c2nc(Cl)ncc2F)C(c2cc(F)cc(C(F)(F)F)c2)C1 (stereo not shown) [compound 201] | F (F represents a maximal response of > 60%) | > 2100 | > 2100 | F (F represents a maximal response of > 60%)
OC1CCN(c2nc(Cl)ncc2F)C(c2cccc(C(F)(F)F)c2)C1 (stereo not shown) [compound 202] | F (F represents a maximal response of > 60%) | > 2100 | > 2100 | E (E represents a maximal response of 40-60%)
[2H]C1(c2ccc(F)c(Br)c2)C(F)CCCN1Cc1cccc(Cl)c1 (stereo not shown) [compound 203] | F (F represents a maximal response of > 60%) | > 2100 | < 700 | D (D represents a maximal response of < 40%)
[2H]C1(c2cccc(C(F)(F)F)c2)C(F)CCCN1Cc1cccc(Cl)c1 (stereo not shown) [compound 204] | F (F represents a maximal response of > 60%) | 700 to 2100 | 700 to 2100 | F (F represents a maximal response of > 60%)
[2H]C1(c2cccc(C(F)(F)F)c2)C(F)CCCN1Cc1cccc(Br)c1 (stereo not shown) [compound 206] | F (F represents a maximal response of > 60%) | 700 to 2100 | 700 to 2100 | E (E represents a maximal response of 40-60%)
